Here are results for twelve molecules from ChEMBL document CHEMBL1201862, “PubChem BioAssay data set” (2004).

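These data come from cells grown in 96-well plates and exposed to compound for 48 hours at five concentrations. Here, GI50 denotes the concentration required for 50% inhibition of growth.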 Calls of active or inactive are those of the source. Cut-off read from the data, not from the text of the source: active = GI50 up to about 1.1 µM and inactive = higher.

Among the test systems are NCI-H226; A549; IGROV-1; HCT-116; LXFL 529; LOX IMVI; NCI-H460; NCI-H522; SW-620; KM12; A498; OVCAR-4; CAKI-1; SNB-75; SK-OV-3; SK-MEL-5; TK-10; MDA-MB-435; BT-549.
What all share (experiment): inhibition of tumour cell growth, NCI panel, 48 h

In the case of `NC(=O)COc1ccccc1`, the GI50 in the assay with NCI-H226, with A549, in the assay on IGROV-1, in the assay on HCT-116, in the assay with LXFL 529 and in the assay with LOX IMVI was > 100 µM (inactive) each time. Further, the GI50 in the assay on NCI-H460, in the assay with NCI-H522, with SW-620, with KM12, with A498 and in the assay with OVCAR-4 was > 100 µM (inactive) throughout. Also, the GI50 in the assay with CAKI-1, in the assay with SNB-75, in the assay on SK-OV-3, in the assay with SK-MEL-5 and with TK-10 was > 100 µM (inactive) throughout.
`O=C1N=C2N=C(c3ccc(Cl)cc3)N(c3ccc(Cl)cc3)N2Sc2ccccc21`: the GI50 was > 100 µM (inactive) with NCI-H226; 39.8 µM (inactive) with A549; > 100 µM (inactive) with IGROV-1; > 100 µM (inactive) in the assay on HCT-116; > 100 µM (inactive) with LXFL 529; > 100 µM (inactive) in the assay with LOX IMVI. The GI50 with NCI-H460 was 81.3 µM (inactive); with NCI-H522 it was > 100 µM (inactive); in the assay with SW-620, > 100 µM (inactive); in the assay with KM12, 83.9 µM (inactive); with A498, > 100 µM (inactive); with OVCAR-4 it was > 100 µM (inactive). Besides, the GI50 in the assay with CAKI-1, with SNB-75, with SK-OV-3, in the assay on SK-MEL-5 and with TK-10 was > 100 µM (inactive) in each case.
As to `CC(=O)Oc1ccc(CO)cc1OC(C)=O`, the GI50 in the assay on NCI-H226, in the assay on A549, with HCT-116, in the assay with LXFL 529, with LOX IMVI and in the assay on NCI-H460 was > 100 µM (inactive) throughout. Also, the GI50 with NCI-H522 was 36.3 µM (inactive); in the assay with SW-620, > 100 µM (inactive); with KM12, > 100 µM (inactive); in the assay on A498, > 100 µM (inactive); in the assay with OVCAR-4, > 100 µM (inactive); in the assay on CAKI-1, > 100 µM (inactive). Further, the GI50 with SNB-75, in the assay with SK-OV-3, with SK-MEL-5 and in the assay on TK-10 was > 100 µM (inactive) each time.
In the case of `CC(N)Cc1ccc(F)cc1` (centres undefined), the GI50 with NCI-H226, in the assay with A549, in the assay on IGROV-1, with HCT-116, with LXFL 529 and in the assay on LOX IMVI was > 100 µM (inactive) in each case. In addition, the GI50 with NCI-H460, in the assay on NCI-H522, with SW-620, in the assay with KM12, in the assay on A498 and with OVCAR-4 was > 100 µM (inactive) in each case. The GI50 in the assay with CAKI-1, in the assay on SNB-75, in the assay with SK-OV-3, in the assay with SK-MEL-5 and with TK-10 was > 100 µM (inactive) throughout.
With `CSc1nc(NC2OC(COC(C)=O)C(OC(C)=O)C(OC(C)=O)C2OC(C)=O)c2c(n1)OCC2=O` (centres undefined), the GI50 in the assay with NCI-H226, in the assay on A549, in the assay with IGROV-1, in the assay with HCT-116, with LXFL 529 and in the assay with LOX IMVI was > 100 µM (inactive) throughout. Further, the GI50 with NCI-H460, in the assay on NCI-H522, in the assay on SW-620, in the assay with KM12, in the assay on A498 and with OVCAR-4 was > 100 µM (inactive) throughout. Moreover, the GI50 in the assay with CAKI-1, with SNB-75, with SK-OV-3, in the assay with SK-MEL-5 and in the assay on TK-10 was > 100 µM (inactive) each time.
As to `Cc1ccc(C2=Nc3ccccc3NC(=O)C2)cc1`, the GI50 was 12.7 µM (inactive) in the assay on NCI-H226; > 100 µM (inactive) in the assay with A549; > 100 µM (inactive) in the assay with IGROV-1; > 100 µM (inactive) in the assay on HCT-116; > 100 µM (inactive) in the assay with LXFL 529; 95.1 µM (inactive) in the assay on LOX IMVI. The GI50 in the assay with NCI-H460 is > 100 µM (inactive); with NCI-H522, 98.4 µM (inactive); with SW-620, 27.7 µM (inactive); in the assay on KM12 it was > 100 µM (inactive); with A498, > 100 µM (inactive); with OVCAR-4, > 100 µM (inactive). For the same molecule, the GI50 in the assay with CAKI-1 was > 100 µM (inactive); with SNB-75, 43.8 µM (inactive); with SK-OV-3, > 100 µM (inactive); in the assay on SK-MEL-5, > 100 µM (inactive); in the assay with TK-10, > 100 µM (inactive).
For the molecule `CC1OC(n2cc(F)c(=O)[nH]c2=O)C=CC1=O` (centres undefined), the GI50 was 24.7 µM (inactive) in the assay on NCI-H226; > 100 µM (inactive) with A549; 29.8 µM (inactive) in the assay on IGROV-1; 16.3 µM (inactive) in the assay on HCT-116; 16.6 µM (inactive) in the assay on LXFL 529; 15 µM (inactive) in the assay with LOX IMVI. Moreover, the GI50 in the assay on NCI-H460 was 21.6 µM (inactive); in the assay on NCI-H522, 9.38 µM (inactive); in the assay on SW-620 it was 18.8 µM (inactive); in the assay on KM12, 17.7 µM (inactive); in the assay on A498 it was 16.7 µM (inactive); with OVCAR-4, 18.1 µM (inactive). Besides, the GI50 is 14.5 µM (inactive) in the assay on CAKI-1; 17.9 µM (inactive) in the assay with SNB-75; 29 µM (inactive) in the assay with SK-OV-3; 17.4 µM (inactive) in the assay on SK-MEL-5; 17 µM (inactive) in the assay with TK-10.
Take `COC1CC(CC2CCC(C)C(C(C)C(=O)O)O2)OC2(OC(C)(C3CCC(C)(C4OC(C5OC(O)(CO)C(C)CC5C)CC4C)O3)CC2C)C1C` (centres undefined): the GI50 was 1.75 µM (inactive) with MDA-MB-435; 1.21 µM (inactive) with NCI-H226; 0.111 µM (active) in the assay with A549; 1.56 µM (inactive) in the assay on IGROV-1; 0.759 µM (active) with HCT-116; 0.0535 µM (active) with LXFL 529. The GI50 is 1.28 µM (inactive) in the assay with LOX IMVI; 0.402 µM (active) in the assay with NCI-H460; 0.0217 µM (active) in the assay with NCI-H522; 1.52 µM (inactive) in the assay with SW-620; 0.773 µM (active) in the assay on KM12; 0.22 µM (active) in the assay with A498. Besides, the GI50 in the assay with OVCAR-4 was 6.56 µM (inactive); in the assay on BT-549, 0.3 µM (active); in the assay with CAKI-1, 0.906 µM (active); in the assay on SNB-75, 0.36 µM (active); with SK-OV-3, 7.4 µM (inactive); in the assay on SK-MEL-5, 0.156 µM (active). In the assay with TK-10, the GI50 was 5.36 µM (inactive).
As to `NC1=NC(c2ccccc2)CC(c2cc(Cl)ccc2O)=N1` (centres undefined), the GI50 with NCI-H226 is 21.2 µM (inactive); with A549, 14.3 µM (inactive); with IGROV-1, 19.3 µM (inactive); with HCT-116, 14 µM (inactive); in the assay with LXFL 529 it was 15 µM (inactive); in the assay on LOX IMVI it was 15.5 µM (inactive). The GI50 with NCI-H460 was 15.5 µM (inactive); with NCI-H522 it was 15.5 µM (inactive); in the assay with SW-620, 14.1 µM (inactive); with KM12, 13.7 µM (inactive); in the assay with A498 it was 20.1 µM (inactive); with OVCAR-4 it was 17.9 µM (inactive). The GI50 with CAKI-1 is 14.9 µM (inactive); in the assay on SNB-75, 17.7 µM (inactive); in the assay with SK-OV-3, 17.9 µM (inactive); with TK-10, 25.1 µM (inactive).
With `CSC1NC=Nc2c1sc(=S)n2-c1ccccc1` (centres undefined), the GI50 in the assay with NCI-H226, in the assay on A549, in the assay on IGROV-1, with HCT-116, with LXFL 529 and with LOX IMVI was > 100 µM (inactive) throughout. Further, the GI50 in the assay on NCI-H460 is > 100 µM (inactive); with NCI-H522, > 100 µM (inactive); in the assay with SW-620, > 100 µM (inactive); in the assay on KM12 it was > 100 µM (inactive); with A498 it was > 100 µM (inactive); with OVCAR-4, 89.1 µM (inactive). Besides, the GI50 was > 100 µM (inactive) in the assay with CAKI-1; 28.4 µM (inactive) in the assay on SNB-75; > 100 µM (inactive) with SK-OV-3; > 100 µM (inactive) in the assay on SK-MEL-5; > 100 µM (inactive) in the assay on TK-10.
For `CO/N=C/c1cc(OC)c(OC)c(OC)c1`, the GI50 in the assay with NCI-H226, in the assay with A549, in the assay on IGROV-1, with HCT-116, in the assay on LXFL 529 and with LOX IMVI was > 100 µM (inactive) each time. Moreover, the GI50 in the assay with NCI-H460, in the assay on NCI-H522, in the assay on SW-620, in the assay on KM12, in the assay with A498 and in the assay on OVCAR-4 was > 100 µM (inactive) throughout. Moreover, the GI50 in the assay with CAKI-1, in the assay on SNB-75, in the assay on SK-OV-3, with SK-MEL-5 and with TK-10 was > 100 µM (inactive) each time.
In the case of `CCOC(=O)[C@H](Cc1ccccc1)NC(=O)c1nc[nH]c1[N+](=O)[O-]`, the GI50 in the assay on NCI-H226, in the assay with A549, in the assay on IGROV-1, in the assay on HCT-116, with LXFL 529 and in the assay with LOX IMVI was > 100 µM (inactive) in each case. In addition, the GI50 in the assay on NCI-H460, in the assay with NCI-H522, with SW-620, with KM12, with A498 and in the assay on OVCAR-4 was > 100 µM (inactive) in each case. For the same molecule, the GI50 in the assay with CAKI-1, in the assay with SNB-75, with SK-OV-3, with SK-MEL-5 and with TK-10 was > 100 µM (inactive) each time.
